Laboratory results published in patent EP0831877B1, “METABOLIC EFFECTS OF CERTAIN GLUTATHIONE ANALOGS” (TELIK, INC., priority 1995, dated 1996).
“And” between values parts separate entries of the source, which are not always exact repeats. Equal entries are not always repeated. *1 amine or outer side, *2 acyl side, *3 side chain or, on linkers, in order; H or OH if unused. Where a SMILES comes first, the peptide text is derived from it. [ ]: non-standard residue; d: D form. The star is where a group is joined. γGlu = O=C(O)[C@H](CCC(=O)[*:2])N[*:1]; dPhg = N[C@@H](C(=O)O)c1ccccc1; Bn = c1ccc(C*)cc1

How the values were obtained:
HT4-1 tumors = assay: potentiation of melphalan toxicity in vivo, implanted HT4-1 tumors; parameters: species or system Male scid mice; conditions: group 1: 5 mg/kg melphalan alone, seven days; when control tumors reached 1500 mm^3
Procedure: Male scid mice were subcutaneously implanted with HT4-1 tumors from donor mice. HT4-1 is a subclone of HT-29, a human colon cancer. When tumors reached approximately 100 mm^3, the mice were randomized into six treatment groups and treated for seven days as follows: • 1. 5 mg/kg melphalan; • 2. 10 mg/kg ethacrynic acid; • 3. […] 5 mg/kg melphalan + 10 mg/kg ethacrynic acid; • 5.
The mice were monitored for weight changes and tumor volumes were determined by measurement with calipers. The tumor growth was monitored until the average tumor size reached 1500 mm^3 for all groups except melphalan with ethacrynic acid.
The results were computed in terms of the tumor volume in the drug treated mice as a percentage of control tumor volume (i.e., in the group administered vehicle alone). In group 1, administered melphalan alone, the tumors were approximately 75% of the volume of controls. […] For group 4 administered a combination of melphalan and ethacrynic acid, the volumes were approximately 35% of control. […] (The volume measurements were taken at the time control tumors reached 1500 mm^3.)

bone marrow GM-CFU [1] = conditions: melphalan 10 mg/kg i.p. alone
[2] = in vitro half-life / metabolism in mouse blood; format: in vitro ADME
[3] = in vitro half-life in human blood; format: in vitro ADME
[4] = tested on: HT-29 (human colon adenocarcinoma) cells; assay: modified clonogenic assay, potentiation of chlorambucil cytotoxicity; format: cell-based
Procedure: HT-29 (human colon adenocarcinoma) cells were obtained from Dr. Roberto Ceriani (Cancer Research Fund of Contra Costa County, Walnut Creek, CA) and were used in log phase of growth unless otherwise specified. Chlorambucil (CMB) was obtained from Sigma (St. Louis, MO) and was dissolved in 100% ethanol. All GST inhibitors were dissolved in ethanol, DMSO, or water just prior to use. The same amount of solvent added to culture medium served as the vehicle control.
In a modified clonogenic assay for cytotoxicity, cells were suspended at 2 x 10^5 cells/ml in serum-free medium in the presence of vehicle or inhibitor. […] Cells were incubated for 2 hours, then varying doses of CMB were added. At the end of a second 2-hour incubation, cells were diluted to 7.5-10 x 10^3/ml in serum-containing medium and plated in quadruplicate at 200 µl/well in Microtest III microtiter plates.
Plates were incubated for 6 days and assayed by a modified methylene blue method. Briefly, cells were fixed with 1.25% glutaraldehyde in PBS then stained with 0.05% methylene blue in distilled water. Plates were washed several times in distilled water to remove unretained dye and retained dye was resolubilized in 0.03 N HCl. Plates were read at 650 nm in a Molecular Devices Vmax plate reader (Molecular Devices, Redwood City, CA). […] A dose modification factor (DMF), a measure of potentiation of cytotoxicity, was calculated for each inhibitor by dividing the IC50 value of CMB without inhibitor treatment by the IC50 value for CMB with inhibitor treatment.

Human GST P1-1 = Human GST P1-1 (Homo sapiens, UniProt P09211); assay: inhibition of GST isoenzyme P1-1 (Ki); format: biochemical; conditions: determined on unesterified form
Chain of Human GST P1-1 (P09211 2-210 limits assumed): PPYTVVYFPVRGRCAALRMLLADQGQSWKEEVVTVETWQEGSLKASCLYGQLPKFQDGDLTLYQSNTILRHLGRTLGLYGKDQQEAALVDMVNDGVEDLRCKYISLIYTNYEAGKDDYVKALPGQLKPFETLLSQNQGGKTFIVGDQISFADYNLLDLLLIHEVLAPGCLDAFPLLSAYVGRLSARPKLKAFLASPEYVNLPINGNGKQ

GST A1-1 = biological target: T1, GST A1-1 (Homo sapiens, UniProt P08263); assay: inhibition of GST isoenzyme A1-1 (Ki); format: biochemical; conditions: determined on unesterified form
T1 sequence (P08263 1-222): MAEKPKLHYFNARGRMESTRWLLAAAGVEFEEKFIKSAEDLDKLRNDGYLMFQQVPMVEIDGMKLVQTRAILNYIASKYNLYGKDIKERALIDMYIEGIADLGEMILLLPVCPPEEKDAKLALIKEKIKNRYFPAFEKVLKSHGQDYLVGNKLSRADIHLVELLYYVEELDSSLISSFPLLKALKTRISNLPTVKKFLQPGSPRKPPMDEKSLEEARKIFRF

GST M1a-1a = biological target: T2, GST M1a-1a (Homo sapiens, UniProt P09488); assay: inhibition of GST isoenzyme M1a-1a (Ki); format: biochemical; conditions: determined on unesterified form
T2 sequence (P09488 1-218): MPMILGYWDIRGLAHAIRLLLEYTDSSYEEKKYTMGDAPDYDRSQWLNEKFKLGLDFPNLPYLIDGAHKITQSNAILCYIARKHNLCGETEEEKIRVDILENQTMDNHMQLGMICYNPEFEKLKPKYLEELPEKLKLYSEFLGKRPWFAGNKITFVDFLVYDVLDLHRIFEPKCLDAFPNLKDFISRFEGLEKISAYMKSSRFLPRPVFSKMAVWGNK

GST M2-2 = biological target: T3, GST M2-2 (Homo sapiens, UniProt P28161); assay: inhibition of GST isoenzyme M2-2 (Ki); format: biochemical; conditions: determined on unesterified form
T3 sequence (P28161 1-218): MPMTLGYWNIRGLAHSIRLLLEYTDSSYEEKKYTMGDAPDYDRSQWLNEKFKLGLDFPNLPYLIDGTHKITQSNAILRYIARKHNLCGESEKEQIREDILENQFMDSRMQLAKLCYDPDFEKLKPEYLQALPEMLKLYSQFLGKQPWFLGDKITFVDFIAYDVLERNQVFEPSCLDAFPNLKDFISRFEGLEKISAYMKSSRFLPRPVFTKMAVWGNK

bone marrow GM-CFU [5] = assay: stimulation of bone marrow GM-CFU after administration to mice; format: in vivo, B6D2F1 mice; conditions: bone marrow harvested 24 hours after administering
Procedure: In an illustrative assay three B6D2F1 mice were treated with various doses of benzyl PG intraperitoneally.
Mice in the control group were injected with water or saline. Bone marrow cells were harvested 24 hours after drug treatment and added to alpha minimum essential medium (alpha MEM) supplemented with methylcellulose (0.8% w/v), fetal bovine serum (20% v/v), deionized BSA (1% w/v), Pokeweed mitogen-stimulated spleen-cell conditioned medium (PWM-SCCM)^1 (10% v/v) and gentamycin (50 Tg/ml). One ml aliquots were plated (four replicate plates) and incubated for seven days at 37 °C. […] Spleens were removed aseptically from four male B6D2F1 mice enforced through a 200 Tm wire mesh screen to obtain a single cell suspension. Ten ml of the suspension (2-4 X 10^7 cell/ml was added to 90 ml alpha-MEM supplemented with 1% deionized BSA, 50 Tg/ml gentamicin, 0.3% freshly reconstituted pokeweed antigen, 10 µM 2-mercaptoethanol. The mixture was incubated for 5 days at […] in a 5% CO2 atmosphere and the result-ing conditioned medium was centrifuged at 800g for ten minutes and filtered through a 0.22 Tm filter. Aliquots were kept frozen at […] until use.
Bone marrow was harvested 24 hours after administering the compounds and GM-CFU levels measured as described above.

[6] = tested on: HT4-1, a subclone of HT-29; assay: standard clonogenic assay, potentiation of drug toxicity, HT4-1; conditions: HT4-1 cells
Procedure: Four chemotherapeutic drugs, chlorambucil, adriamycin, mitomycin C and doxorubicin were used as the toxic agents. In these assays, the cells were seeded at 300 cells/well in 2 ml of medium in 6-well plates in the presence of the compounds used in the invention as the diethyl esters. […] After incubation for 1-2 hours to permit cells to attach, varying doses of the chemotherapeutic agents were added. At least three replicate wells were plated for each test condition and the plates were incubated for two weeks. […] IC50 values were determined for the chemotherapeutic agent in the presence or absence of the compound used in the invention and dose modification factors were calculated by dividing the IC50 value of drug without the compound by the IC50 value of the drug with the compound.

With `N[C@@H](Cc1ccc(N(CCCl)CCCl)cc1)C(=O)O` [melphalan, reference compound] the “tumor volume as a percentage of control tumor volume” value (HT4-1 tumors) was “approximately 75%” and the GM-CFU remaining (bone marrow GM-CFU [1]) was 2%.

For `CCNC(=O)C(N)CCC(=O)NC(CSCc1ccccc1)C(=O)N[C@@H](C(=O)OCC)c1ccccc1` (stereo partly drawn) [TER300, γE ethyl amide-C(Bz)-R-(-)-ϕG ethyl ester], the “half-life compared with TER199” value [2] was “longer half-lives than TER199”, the rate of metabolism [2] was “intermediate between that of TER199 and TER278” and the “half-life, comparison of the three compounds” value [3] was “approximately the same”. The “amount required to achieve equivalent potentiation of chlorambucil, relative to TER199” value [4] was “Four times as much”, the “DMF for chlorambucil toxicity” value ([4]; HT-29, 50 µM, mean ±SD of three experiments) was 1.45 ± 0.16 and the rate of metabolism (HT-29 cell culture) was “intermediate between that of TER199 and TER278”.

For `N[C@@H](CCC(=O)N[C@@H](CSCc1ccccc1)C(=O)N[C@@H](C(=O)O)c1ccccc1)C(=O)O` [TER117, γE-C(Bz)-ϕG] (γGlu-Cys(Bn)-[dPhg]-OH), the “DMF (dose modification factor), Parent Compound” value ([4]; chlorambucil, HT-29, dose tested 100 µM, mean ±S.D. of 2-3 experiments) was 1.08 and 1.08±0.01, the Ki (Human GST P1-1) was 0.4 µM and the Ki (GST A1-1) was 20 µM. For the same compound, the Ki (GST M1a-1a) was 25 µM, the Ki (GST M2-2) was 31 µM and the “effect on GM-CFU as a function of dosage, ester/amide forms (Figure 7)” value (bone marrow GM-CFU [5]) was “not effective”. The “survival of HT4-1 cells in the presence of the compound alone (Figure 1b)” value [6] was “substantially no effect”.
